For one molecule, Ki results are on record in publication PMC3349777 (2012).

Test [1] deals with Trypanosoma cruzi squalene synthase (TcSQS) (Trypanosoma cruzi, UniProt Q4CWB4). The experiment in a line: enzyme inhibition assay, recombinant SQS. Type of test: biochemical.
For test [2], the target named is T1, human squalene synthase (HsSQS) (Homo sapiens, UniProt P37268).
T1 sequence (P37268 1-417): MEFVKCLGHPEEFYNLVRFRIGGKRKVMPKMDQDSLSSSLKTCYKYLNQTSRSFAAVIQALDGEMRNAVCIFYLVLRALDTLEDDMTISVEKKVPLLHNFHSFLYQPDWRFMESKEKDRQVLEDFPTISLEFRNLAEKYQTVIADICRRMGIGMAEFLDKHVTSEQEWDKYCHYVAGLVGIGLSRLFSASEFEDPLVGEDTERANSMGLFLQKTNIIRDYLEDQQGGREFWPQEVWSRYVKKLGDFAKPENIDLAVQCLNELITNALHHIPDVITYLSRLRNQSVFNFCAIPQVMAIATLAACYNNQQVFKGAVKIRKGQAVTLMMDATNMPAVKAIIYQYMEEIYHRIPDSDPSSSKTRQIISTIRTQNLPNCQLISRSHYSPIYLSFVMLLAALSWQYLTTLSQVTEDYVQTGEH
As to the kind of experiment: enzyme inhibition assay, recombinant SQS. Type of test: biochemical.

With `CC(C)=CCC/C(C)=C\CNCCNC1C2CC3CC(C2)CC1C3` (centres unmarked) [compound 3, SQ-109], the results for the inhibition constant (Ki) in test [1] and in test [2] were 1200 nM and 740 nM, respectively.
